# Measured values published in patent US20260216123A1, “PHARMACEUTICAL COMPOSITION FOR PREVENTING OR TREATING DEGENERATIVE OSTEOARTHRITIS” (GLACEUM INC., priority 2023, published 2026).
# What was measured:
# Format in all cases: in vivo
# MMP3 = assay: Immunohistochemical analysis of knee joint tissue in MIA-OA animal model: MMP3; settings: MIA-OA rat; immunohistochemistry; FIG. 7
# Experimental: (§1) All animals were allowed to acclimatize for one week after introduction to the laboratory environment. On the day of the start of the experiment, monosodium iodoacetate (MIA, Sigma, Cat. No. 12512) was dissolved in saline for injection at a concentration of 30 mg/mL, and 50 μL of the solution was administered once on the day of the start of the experiment. The animals were divided into groups as follows. The animals were randomly distributed so that the average of each group was distributed as evenly as possible according to the pain threshold evaluation values ranked, so as to obtain the number specified in the “Constitution of Test Groups” table. Individual identification was done by writing numbers directly on the tails of the animals. Individual identification cards of different colors were attached to the housing boxes according to each dose. An animal room usage record sheet containing the test number, animal room usage period, principal investigator name, subinvestigator name, emergency contact information, etc. was attached to the animal room entrance. […]
# (§2) The histopathological analysis of knee joint tissue was performed using the same model as that in Experimental Example 1. […] Then, the Dab-positive area expressing each cytokine in the synovium was extracted using ImageJ software (Wayne Rasband, NIH, USA) and expressed as a percentage relative to the total nuclear area.
# IL-6 = assay: Immunohistochemical analysis of knee joint tissue in MIA-OA animal model: IL-6; settings: MIA-OA rat; immunohistochemistry; FIG. 5
# Experimental: as §1, §2
# MIA-induced OA rat model [1] = assay: Weight bearing (incapacitance meter) in MIA-induced OA rat model; settings: FIG. 2
# Experimental: All animals were allowed to acclimatize for one week after introduction to the laboratory environment. On the day of the start of the experiment, monosodium iodoacetate (MIA, Sigma, Cat. No. 12512) was dissolved in saline for injection at a concentration of 30 mg/mL, and 50 μL of the solution was administered once on the day of the start of the experiment. The animals were divided into groups as follows. The animals were randomly distributed so that the average of each group was distributed as evenly as possible according to the pain threshold evaluation values ranked, so as to obtain the number specified in the “Constitution of Test Groups” table. Individual identification was done by writing numbers directly on the tails of the animals. […]
# Weight bearing was measured using the same model as that in Experimental Example 1. […] The weight bearing of each hind paw was measured using an incapacitance meter (Model 600, IITC, USA), a device for measuring weight bearing. […]
# When each animal was correctly positioned in the holder, the machine was operated, the measurement time was set to 5 seconds, and a total of two measurements were taken and averaged to determine the weight bearing (g) of each paw. […] The results of the weight-bearing measurement test were converted into weight bearing ratio using the following calculation formula and analyzed.
# MIA-induced OA rat model [2] = assay: Pain suppression (nociceptive pain threshold, dynamic plantar aesthesiometer) in MIA-induced OA rat model; settings: FIG. 1
# Experimental: All animals were allowed to acclimatize for one week after introduction to the laboratory environment. On the day of the start of the experiment, monosodium iodoacetate (MIA, Sigma, Cat. No. 12512) was dissolved in saline for injection at a concentration of 30 mg/mL, and 50 μL of the solution was administered once on the day of the start of the experiment. The animals were divided into groups as follows. The animals were randomly distributed so that the average of each group was distributed as evenly as possible according to the pain threshold evaluation values ranked, so as to obtain the number specified in the “Constitution of Test Groups” table. Individual identification was done by writing numbers directly on the tails of the animals. Individual identification cards of different colors were attached to the housing boxes according to each dose. […]
# The nociceptive pain threshold (g) was measured using a dynamic plantar aesthesiometer (Ugo Basile, 37400, Comerio, Italy), a device in which the force applied to the animal's paw gradually increases over a certain period of time. […] The results for the nociceptive pain threshold were calculated as paw withdrawal latency (sec) and paw withdrawal threshold (g).
# RIPK3 = assay: Immunohistochemical analysis of knee joint tissue in MIA-OA animal model: RIPK3; settings: MIA-OA rat; immunohistochemistry; FIG. 8
# Experimental: as §1, §2
# MCP-1 = assay: Immunohistochemical analysis of knee joint tissue in MIA-OA animal model: MCP-1; settings: MIA-OA rat; immunohistochemistry; FIG. 6
# Experimental: as §1, §2
# [3] = test system: knee joint tissue of MIA-OA rat model; assay: Histopathological analysis of knee joint tissue (Safranin O staining, OARSI and Mankin scores) in MIA-OA animal model
# Experimental: All animals were allowed to acclimatize for one week after introduction to the laboratory environment. On the day of the start of the experiment, monosodium iodoacetate (MIA, Sigma, Cat. No. 12512) was dissolved in saline for injection at a concentration of 30 mg/mL, and 50 μL of the solution was administered once on the day of the start of the experiment. The animals were divided into groups as follows. The animals were randomly distributed so that the average of each group was distributed as evenly as possible according to the pain threshold evaluation values ranked, so as to obtain the number specified in the “Constitution of Test Groups” table. Individual identification was done by writing numbers directly on the tails of the animals. Individual identification cards of different colors were attached to the housing boxes according to each dose. An animal room usage record sheet containing the test number, animal room usage period, principal investigator name, subinvestigator name, emergency contact information, etc. was attached to the animal room entrance. The test groups consisted of WT, vehicle, 25 mg/kg Compound 2, and 50 mg/kg Compound 2, respectively, which were administered orally once a day for a total of 21 days starting from 3 days after MIA administration.
# Histopathological analysis of knee joint tissue was performed using the same model as that in Experimental Example 1. For histopathological analysis, Safranin 0 staining was performed, and two evaluators scored the severity of osteoarthritis according to the following evaluation criteria. As the analysis criteria, OARSI and total Mankin scores were analyzed. The OARSI analysis criteria were scored as follows: 0: normal cartilage surface; 1: cartilage surface is normal but cell death is found; 2: disruption of the cartilage surface and fibrosis of the surface layer; 3: splitting along the longitudinal axis of cartilage; 4: damage and infiltration to the middle part of cartilage; 5: exposure of stromal bone area; and 6: complete cartilage damage and formation of osteophytes. The total Mankin score analysis criteria were analyzed for four items: structure (0-6), cell (0-3), Safranin 0 (0-4), and tidemark (0-1). A higher score for each item indicates more damage to chondrocytes cells and structure.
# [4] = oral once a day, 21 days, FIG. 4
compound,measurement,setting,value
CCOc1ccc(C2COc3c(ccc4c3CCC(C)(C)O4)C2)c(O)c1 (centres unmarked) [Compound 2],MMP3 in knee joint tissue (Dab-positive area),MMP3,reduced
same,MMP3 reduction efficacy compared with positive control celecoxib,MMP3,better efficacy than celecoxib
same,IL-6 in knee joint tissue (Dab-positive area),IL-6,inhibited
same,weight bearing following cartilage damage,MIA-induced OA rat model [1]; 25 mg/kg and 50 mg/kg orally once a day for 21 days,reduced
same,weight bearing efficacy compared with positive control celecoxib,"MIA-induced OA rat model [1]; oral once a day, 21 days",efficacy equivalent to that of celecoxib
same,pain caused by cartilage damage (nociceptive pain threshold),MIA-induced OA rat model [2]; 25 mg/kg and 50 mg/kg orally once a day for 21 days from 3 days after MIA,gradually reduced
same,pain suppression efficacy compared with positive control celecoxib,"MIA-induced OA rat model [2]; oral once a day, 21 days","efficacy equivalent to that of the positive control, celecoxib"
same,RIPK3 in knee joint tissue (Dab-positive area),RIPK3,inhibited
same,RIPK3 inhibition efficacy compared with positive control celecoxib,RIPK3,better efficacy than celecoxib
same,MCP-1 in knee joint tissue (Dab-positive area),MCP-1,inhibited
same,histopathology score efficacy compared with positive control celecoxib,"[3]; OARSI and Mankin scores, FIG. 4",efficacy equivalent to that of celecoxib
same,Safranin 0 staining of the cartilage tissue,"[3]; oral once a day, 21 days, FIG. 3",improved
same,Mankin score (severity of osteoarthritis),[3]; [4],reduced
same,ORASI score (severity of osteoarthritis),[3]; [4],reduced
